For data set [1], the system named is ZIKV SPH. The experiment in a line: Autophagy compound library screen, ZIKV SPH titer (TCID50) in C6/36 cells. It counts as cell-based, Zika virus. Conditions: Zika virus, C6/36; 10 µM compound, MOI 0.1, 96 h, TCID50; ± SEM, three independent trials; read-out: ZIKV SPH Relative Titer in C6/36 Cells.
For data set [2], the system named is C6/36 cells. The format is cell-based, Ae. albopictus. Conditions: 10 µM compound, 96 h, CellTiter-Glo; ± SEM, three independent trials. A general note: Cellular ATP, detected with luciferase, serves as a proxy for viable cell number.
The test system of data set [3] is autophagic vesicles in Vero cells. As to the kind of experiment: Autophagy detection (CYTO-ID) in Vero cells. It counts as cell-based. Conditions: 10 µM compound, 24 h, CYTO-ID green MFI vs DMSO control.
The subject of data set [4] is ZIKV IbH. The experiment in a line: Autophagy compound screen in Vero cells infected with ZIKV IbH. The format is cell-based, Zika virus. Conditions: African-lineage ZIKV IbH, 10 µM.
In data set [5] the test system is ZIKV SPH. The experiment in a line: ZIKV SPH titer in compound-treated human neurons. It counts as cell-based, Zika virus. Conditions: 10 µM, ZIKV SPH MOI 1.0, 4 days, TCID50.
In data set [6] the test system is ZIKV SPH. As to the kind of experiment: 7-Ketocholesterol dose-response, ZIKV SPH titer in Vero cells. It counts as cell-based. Conditions: Zika virus, MOI 1, 24 h, 0–27 µM, TCID50, R^2 = 0.9078.
For data set [7], the system named is ZIKV SPH. The experiment in a line: Time-of-addition assay in Vero cells. It counts as cell-based, Zika virus. Conditions: for ZIKV titer, time-of-addition / Decrease of ZIKV titers, time-of-addition: Vero.
Data set [8] concerns ZIKV SPH. As to the kind of experiment: 7-Ketocholesterol and ZIKV pre-incubation (virucidal effect). It counts as cell-based, Zika virus. Conditions: 200 µM 7-KC, 1 h, room temperature, then diluted to approx. 0.2 µM on Vero cells, MOI 0.1, 40 hpi.
Data set [9] concerns ZIKV SPH. The experiment in a line: qRT-PCR of ZIKV genomes in cells and supernatants. It counts as cell-based, Zika virus. A general note: Quantitative PCR measures a nucleic acid by following its amplification.
Data set [10] relates to human papillomavirus. Details: method as in ref 39 = [39]. Conditions: cited from earlier work.
Data set [11] relates to human rotavirus. More on the design: method as in ref 39 = [39]. Conditions: cited from earlier work.
Data set [12] deals with human rhinovirus. Details: method as in ref 39 = [39]. Conditions: cited from earlier work.
Data set [13] relates to ZIKV. Details: method as in ref 43 = [43]. Conditions: by inhibiting viral entry; cited from earlier work.
Data set [14] concerns ZIKV. Details: method as in ref 43 = [43]. Conditions: by inhibiting viral entry; cited from earlier work. This is another data set of the same source.

What is called IC50 is the concentration that inhibits the measured activity by half. A higher IC50 goes with weaker potency. `CC(C)CCC[C@@H](C)[C@H]1CC[C@H]2[C@@H]3C(=O)C=C4C[C@@H](O)CC[C@]4(C)[C@H]3CC[C@]12C` [7-Ketocholesterol]: the activity at 10 µM in [1] is 9.8 ± 3.3%. Also, the “C6/36 Viability” value in data set [2] is listed as 36 ± 5.1% of untreated control. In data set [3], the “Autophagy Activity Factor (AAF)” value was 27.01. The “Reduction of ZIKV IbH” value in data set [4] is recorded as “more than 90 % of control”. For the same compound, the “ZIKV IbH titer in Vero cells compared to control” value was “reduced ZIKV IbH titers” in data set [4] and “dropped titers more than a log” in data set [4] (listed as 7-KC). The “ZIKV titer in human neurons” value in data set [5] was “reduced ZIKV titer”. Further, in [6], the IC50 came to 4.06 µM. The “ZIKV titer, time-of-addition” value in data set [7] (10 µM 7-KC added 12 h after infection, 24 hpi) is “ZIKV inhibition continued”; in data set [7] (10 µM 7-KC added 18 h after infection, 24 hpi), “slight decrease in titer”; in data set [7] (10 µM 7-KC, pre-treating cells 2 h before infection, MOI 0.1, 24 hpi) it was “did not reduce viral titers”. The “Decrease of ZIKV titers, time-of-addition” value was found to be 90% in data set [7] (10 µM 7-KC added at 2 hpi, MOI 0.1, 24 hpi); 90% in data set [7] (10 µM 7-KC added at 6 hpi, MOI 0.1, 24 hpi); 90% in data set [7] (10 µM 7-KC added at the time of infection, MOI 0.1, 24 hpi). Further, in [7] (Vero cells, 10 µM 7-KC, 24 hpi), the “Decrease in infectious virions” value was “greater than 90%”. The “ZIKV titer after preincubation of virus stock with compound (virucidal effect)” value in [8] is reported as “did not reduce viral titers”. The “Budding/release efficiency (genomes in supernatant vs cell associated genomes)” value in [9] (Vero cells, 10 µM 7-KC, 24 hpi) is “approximately 30 % of untreated cells”. The “Number of viral genome copies in the supernatant” value in [9] (Vero cells, 10 µM 7-KC, 24 hpi) is “reduced”. Besides, the “Levels of ZIKV RNA in infected cells” value in data set [9] (Vero cells, 10 µM 7-KC, total cellular RNA at 24 hpi) was “not significantly altered”. The “Specific infectivity: 1 in N genomes infectious” value in data set [9] (infectious titer vs genome copies in supernatant, Vero, 7-KC present, control 1 in 1200) was roughly 9000 genomes. Also, the “Activity against human papillomavirus” value in [10] is given as “no activity”. In addition, in data set [11], the “Activity against human rotavirus” value was “no activity”. The “Activity against human rhinovirus” value in data set [12] was “minor activity”.

In the case of `C[C@H](CCCC(C)(C)O)[C@H]1CC[C@H]2[C@@H]3CC=C4C[C@@H](O)CC[C@]4(C)[C@H]3CC[C@]12C` [25-hydroxycholesterol], in data set [13], the “ZIKV titers in vitro” value is recorded as “reduced ZIKV titers”. For the same compound, in [14], the “ZIKV titers in vivo” value is given as “reduced ZIKV titers”.

These data come from PMC6356585 (Viruses, 2018).
